The values below come from patent US12234221B2, “Pyridine carboxamide compounds for inhibiting NAV1.8” (Lieber Institute, Inc., priority 2018, dated 2025).

The structures appear in SMILES notation.

In the assay the target is T1, human Nav1.8 (hNav1.8) ion channel (Homo sapiens, UniProt Q9Y5Y9).
T1 construct: expressed in transfected cells; host or cells: HEK293
T1 sequence (Q9Y5Y9 whole entry): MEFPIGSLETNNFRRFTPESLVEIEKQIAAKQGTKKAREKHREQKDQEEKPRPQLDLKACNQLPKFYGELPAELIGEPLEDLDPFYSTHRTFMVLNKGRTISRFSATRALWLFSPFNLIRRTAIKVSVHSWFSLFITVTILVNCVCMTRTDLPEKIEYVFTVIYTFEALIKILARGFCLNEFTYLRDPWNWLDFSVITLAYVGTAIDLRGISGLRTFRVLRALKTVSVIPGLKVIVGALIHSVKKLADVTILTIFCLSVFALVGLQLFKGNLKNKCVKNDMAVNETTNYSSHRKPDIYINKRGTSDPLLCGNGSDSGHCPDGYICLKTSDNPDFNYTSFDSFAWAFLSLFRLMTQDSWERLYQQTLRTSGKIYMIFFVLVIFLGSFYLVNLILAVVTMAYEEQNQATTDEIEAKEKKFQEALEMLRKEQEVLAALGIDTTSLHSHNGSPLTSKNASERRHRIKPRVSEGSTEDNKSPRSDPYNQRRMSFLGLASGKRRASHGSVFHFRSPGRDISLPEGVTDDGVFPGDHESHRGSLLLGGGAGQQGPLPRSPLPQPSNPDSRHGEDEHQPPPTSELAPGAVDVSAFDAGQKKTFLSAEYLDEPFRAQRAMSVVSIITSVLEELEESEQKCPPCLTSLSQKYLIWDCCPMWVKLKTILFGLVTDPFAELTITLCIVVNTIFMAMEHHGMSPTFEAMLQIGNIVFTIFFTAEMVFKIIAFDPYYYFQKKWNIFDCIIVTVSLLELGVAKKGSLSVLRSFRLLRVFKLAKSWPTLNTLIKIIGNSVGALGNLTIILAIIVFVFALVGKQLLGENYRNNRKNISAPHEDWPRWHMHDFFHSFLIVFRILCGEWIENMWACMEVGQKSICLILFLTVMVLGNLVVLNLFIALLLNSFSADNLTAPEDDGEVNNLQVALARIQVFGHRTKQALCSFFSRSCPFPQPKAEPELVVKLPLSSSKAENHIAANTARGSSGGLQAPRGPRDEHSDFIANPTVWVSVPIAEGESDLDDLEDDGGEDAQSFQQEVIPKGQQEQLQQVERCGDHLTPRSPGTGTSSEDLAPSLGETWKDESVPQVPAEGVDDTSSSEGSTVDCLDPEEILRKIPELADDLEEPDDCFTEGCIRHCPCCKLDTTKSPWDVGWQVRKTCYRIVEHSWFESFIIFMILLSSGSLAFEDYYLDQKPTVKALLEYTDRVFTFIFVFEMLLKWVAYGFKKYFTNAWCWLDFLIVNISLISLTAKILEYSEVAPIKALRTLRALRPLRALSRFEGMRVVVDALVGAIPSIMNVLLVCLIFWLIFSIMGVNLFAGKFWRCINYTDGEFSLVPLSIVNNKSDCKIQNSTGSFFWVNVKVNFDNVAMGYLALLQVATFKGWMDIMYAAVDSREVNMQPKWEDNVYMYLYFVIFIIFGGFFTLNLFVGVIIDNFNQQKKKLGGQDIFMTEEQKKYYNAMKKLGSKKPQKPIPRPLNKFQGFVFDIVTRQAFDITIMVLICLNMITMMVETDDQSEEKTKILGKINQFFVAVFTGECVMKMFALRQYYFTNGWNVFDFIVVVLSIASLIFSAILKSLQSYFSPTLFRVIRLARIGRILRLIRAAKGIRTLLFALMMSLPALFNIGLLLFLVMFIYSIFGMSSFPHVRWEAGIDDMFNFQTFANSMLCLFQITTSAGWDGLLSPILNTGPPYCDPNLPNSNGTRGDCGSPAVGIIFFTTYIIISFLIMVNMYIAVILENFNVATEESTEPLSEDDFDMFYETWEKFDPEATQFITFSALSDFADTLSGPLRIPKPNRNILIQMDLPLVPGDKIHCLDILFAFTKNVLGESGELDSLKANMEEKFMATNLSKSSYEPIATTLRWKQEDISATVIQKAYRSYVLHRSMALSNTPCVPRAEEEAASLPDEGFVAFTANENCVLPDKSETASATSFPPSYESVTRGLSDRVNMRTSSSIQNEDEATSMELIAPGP
In words: Nav1.8 channel inhibition, estimated IC50 (one or more of: fluorescence inhibition assay, PatchXpress, IonFlux HT automated patch clamp). The assay is classed as cell-based. The note with it: HEK293 cells stably expressing hNav1.8; method used per compound not stated; read-out: Activity range (estimated IC50). The procedure, abridged: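 HEK293 cells stably expressing hNav1.8 with β1/β2 subunits; IC50 from the fluorescence assay and/or automated whole-cell patch clamp (PatchXpress, IonFlux HT). Fluorescence: ANG-2 Na dye, 5 min compound preincubation (0.02–5 μM, 1% DMSO) with 30 μM ouabain, stimulation by 10 μM deltamethrin, peak signal fit logistically. PatchXpress: holding potential reset to Vhalf, inhibition normalized to control/washout currents.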
With `COc1cc(F)ccc1Oc1nc2c(cc1C(=O)Nc1cccc(S(C)(=O)=O)c1)CCC2` [Example 120, 2-(4-fluoro-2-methoxy-phenoxy)-N-(3-methylsulfonylphenyl)-6,7-dihydro-5H-cyclopenta[b]pyridine-3-carboxamide], the half-inhibitory concentration (IC50) (usually the concentration that inhibits the measured activity by half) is below 500 nM.

As to `C[S+]([O-])c1cccc(NC(=O)c2cc(C(F)(F)F)cnc2Oc2ccc(OC(F)(F)F)cc2)c1` (centres unmarked) [Example 121, N-(3-methylsulfinylphenyl)-2-[4-(trifluoromethoxy)phenoxy]-5-(trifluoromethyl)pyridine-3-carboxamide], the half-maximal inhibitory concentration (IC50) was below 500 nM.

For `NS(=O)(=O)c1cccc(NC(=O)c2cc(C(F)(F)F)cnc2Oc2ccc(OC(F)(F)F)cc2)c1` [Example 122, N-(3-sulfamoylphenyl)-2-[4-(trifluoromethoxy)phenoxy]-5-(trifluoromethyl)pyridine-3-carboxamide], the IC50 was below 500 nM.

On to `CS(=N)(=O)c1cccc(NC(=O)c2cc(C(F)(F)F)cnc2Oc2ccc(OC(F)(F)F)cc2)c1` (centres unmarked) [Example 123, N-[3-(methylsulfonimidoyl)phenyl]-2-[4-(trifluoromethoxy)phenoxy]-5-(trifluoromethyl)pyridine-3-carboxamide], for which the IC50 was below 500 nM.

With `CN=S(C)(=O)c1cccc(NC(=O)c2cc(C(F)(F)F)cnc2Oc2ccc(OC(F)(F)F)cc2)c1` (centres unmarked) [Example 124, N-[3-(N,S-dimethylsulfonimidoyl)phenyl]-2-[4-(trifluoromethoxy)phenoxy]-5-(trifluoromethyl)pyridine-3-carboxamide], the IC50 was below 500 nM.

In the case of `CCS(=O)(=O)c1cccc(NC(=O)c2cc(C(F)(F)F)cnc2Oc2ccc(OC(F)(F)F)cc2)c1` [Example 125, N-(3-ethylsulfonylphenyl)-2-[4-(trifluoromethoxy)phenoxy]-5-(trifluoromethyl)pyridine-3-carboxamide], the IC50 is below 500 nM.

`O=C(Nc1cccnc1)c1cc(C(F)(F)F)cnc1Oc1ccc(OC(F)(F)F)cc1` [Example 126, N-(3-pyridyl)-2-[4-(trifluoromethoxy)phenoxy]-5-(trifluoromethyl)pyridine-3-carboxamide]: the IC50 was 500 to 1000 nM.

Turning to `O=C(Nc1ccncc1)c1cc(C(F)(F)F)cnc1Oc1ccc(OC(F)(F)F)cc1` [Example 127, N-(4-pyridyl)-2-[4-(trifluoromethoxy)phenoxy]-5-(trifluoromethyl)pyridine-3-carboxamide], the IC50 was below 500 nM.

For `O=C(Nc1ccnnc1)c1cc(C(F)(F)F)cnc1Oc1ccc(OC(F)(F)F)cc1` [Example 128, N-pyridazin-4-yl-2-[4-(trifluoromethoxy)phenoxy]-5-(trifluoromethyl)pyridine-3-carboxamide], the IC50 is below 500 nM.

As to `CS(C)(=O)=Nc1cccc(NC(=O)c2cc(C(F)(F)F)cnc2Oc2ccc(OC(F)(F)F)cc2)c1` [Example 129, N-[3-[[dimethyl(oxo)-λ^6-sulfanylidene]amino]phenyl]-2-[4-(trifluoromethoxy)phenoxy]-5-(trifluoromethyl)pyridine-3-carboxamide], the IC50 is above 1000 nM.

On to `O=C(Nc1ccc[n+]([O-])c1)c1cc(C(F)(F)F)cnc1Oc1ccc(OC(F)(F)F)cc1` [Example 132, N-(1-oxidopyridin-1-ium-3-yl)-2-[4-(trifluoromethoxy)phenoxy]-5-(trifluoromethyl)pyridine-3-carboxamide], for which the IC50 was below 500 nM.

As for `Cc1cc(F)ccc1Oc1ncc(C(F)(F)F)cc1C(=O)Nc1ccc[n+]([O-])c1` [Example 133, 2-(4-fluoro-2-methyl-phenoxy)-N-(1-oxidopyridin-1-ium-3-yl)-5-(trifluoromethyl)pyridine-3-carboxamide], the IC50 was above 1000 nM.

Take `COc1cc(F)ccc1Oc1ncc(C(F)(F)F)cc1C(=O)Nc1ccc[n+]([O-])c1` [Example 134, 2-(4-fluoro-2-methoxy-phenoxy)-N-(1-oxidopyridin-1-ium-3-yl)-5-(trifluoromethyl)pyridine-3-carboxamide]: the IC50 was above 1000 nM.

For the compound `O=C(Nc1ccc[n+]([O-])c1)c1cc(C(F)(F)F)cnc1Oc1ccc(F)cc1F` [Example 135, 2-(2,4-difluorophenoxy)-N-(1-oxidopyridin-1-ium-3-yl)-5-(trifluoromethyl)pyridine-3-carboxamide], the IC50 is above 1000 nM.

For `O=C(Nc1ccc[n+]([O-])c1)c1cc(C(F)(F)F)cnc1Oc1ccc(OC(F)F)cc1` [Example 136, 3-(2-(4-(difluoromethoxy)phenoxy)-5-(trifluoromethyl)nicotinamido)pyridine 1-oxide], the half-inhibitory concentration (IC50) was below 500 nM.

Turning to `COc1ccc(Oc2ncc(C(F)(F)F)cc2C(=O)Nc2ccc[n+]([O-])c2)c(OC)c1` [Example 137, 3-(2-(2,4-dimethoxyphenoxy)-5-(trifluoromethyl)nicotinamido)pyridine 1-oxide], the IC50 was below 500 nM.

In the case of `COc1ccc(Oc2ncc(C(F)(F)F)cc2C(=O)Nc2ccc[n+]([O-])c2)c(Cl)c1` [Example 138, 3-(2-(2-chloro-4-methoxyphenoxy)-5-(trifluoromethyl)nicotinamido)pyridine 1-oxide], the IC50 was below 500 nM.

As for `O=C(Nc1cc[n+]([O-])cc1)c1cc(C(F)(F)F)cnc1Oc1ccc(OC(F)(F)F)cc1` [Example 141, N-(1-oxidopyridin-1-ium-4-yl)-2-[4-(trifluoromethoxy)phenoxy]-5-(trifluoromethyl)pyridine-3-carboxamide], the IC50 was below 500 nM.

Consider `CS(=O)(=O)c1cccc(NC(=O)c2cc(C(F)(F)F)cnc2Oc2ccc(OC(F)(F)F)cc2Cl)c1` [Example 142, 2-[2-chloro-4-(trifluoromethoxy)phenoxy]-N-(3-methylsulfonylphenyl)-5-(trifluoromethyl)pyridine-3-carboxamide], for which the IC50 is below 500 nM.

As to `CCS(=O)(=O)c1cccc(NC(=O)c2cc(C(F)(F)F)cnc2Oc2ccc(OC(F)(F)F)cc2Cl)c1` [Example 143, 2-[2-chloro-4-(trifluoromethoxy)phenoxy]-N-(3-ethylsulfonylphenyl)-5-(trifluoromethyl)pyridine-3-carboxamide], the IC50 was 500 to 1000 nM.

As to `CN=S(C)(=O)c1cccc(NC(=O)c2cc(C(F)(F)F)cnc2Oc2ccc(OC(F)(F)F)cc2Cl)c1` (centres unmarked) [Example 144, 2-[2-chloro-4-(trifluoromethoxy)phenoxy]-N-[3-(N,S-dimethylsulfonimidoyl)phenyl]-5-(trifluoromethyl)pyridine-3-carboxamide], the IC50 is below 500 nM.

Turning to `N#Cc1cccc(NC(=O)c2cc(C(F)(F)F)cnc2Oc2ccc(OC(F)(F)F)cc2Cl)c1` [Example 146, 2-[2-chloro-4-(trifluoromethoxy)phenoxy]-N-(3-cyanophenyl)-5-(trifluoromethyl)pyridine-3-carboxamide], the IC50 was below 500 nM.

On to `Cn1cc(NC(=O)c2cc(C(F)(F)F)cnc2Oc2ccc(OC(F)(F)F)cc2Cl)cn1` [Example 147, 2-[2-chloro-4-(trifluoromethoxy)phenoxy]-N-(1-methylpyrazol-4-yl)-5-(trifluoromethyl)pyridine-3-carboxamide], for which the IC50 is below 500 nM.

Take `NC(=O)c1cccc(NC(=O)c2cc(C(F)(F)F)cnc2Oc2ccc(OC(F)(F)F)cc2Cl)c1` [Example 148, N-(3-carbamoylphenyl)-2-[2-chloro-4-(trifluoromethoxy)phenoxy]-5-(trifluoromethyl)pyridine-3-carboxamide]: the IC50 is 500 to 1000 nM.

Regarding `CC(=O)c1cccc(NC(=O)c2cc(C(F)(F)F)cnc2Oc2ccc(OC(F)(F)F)cc2Cl)c1` [Example 149, N-(3-acetylphenyl)-2-[2-chloro-4-(trifluoromethoxy)phenoxy]-5-(trifluoromethyl)pyridine-3-carboxamide], the 50% inhibitory concentration (IC50) was above 1000 nM.

As to `Cn1ccc(NC(=O)c2cc(C(F)(F)F)cnc2Oc2ccc(OC(F)(F)F)cc2Cl)cc1=O` [Example 150, 2-[2-chloro-4-(trifluoromethoxy)phenoxy]-N-(1-methyl-2-oxo-4-pyridyl)-5-(trifluoromethyl)pyridine-3-carboxamide], the IC50 is below 500 nM.

On to `CN(C)C(=O)c1cccc(NC(=O)c2cc(C(F)(F)F)cnc2Oc2ccc(OC(F)(F)F)cc2Cl)c1` [Example 151, 2-[2-chloro-4-(trifluoromethoxy)phenoxy]-N-[3-(dimethylcarbamoyl)phenyl]-5-(trifluoromethyl)pyridine-3-carboxamide], for which the IC50 is below 500 nM.

On to `CS(=O)(=O)c1ccc(NC(=O)c2cc(C(F)(F)F)cnc2Oc2ccc(OC(F)(F)F)cc2Cl)cc1` [Example 152, 2-[2-chloro-4-(trifluoromethoxy)phenoxy]-N-(4-methylsulfonylphenyl)-5-(trifluoromethyl)pyridine-3-carboxamide], for which the IC50 is below 500 nM.

Regarding `CN(C)S(=O)(=O)c1cccc(NC(=O)c2cc(C(F)(F)F)cnc2Oc2ccc(OC(F)(F)F)cc2Cl)c1` [Example 154, 2-[2-chloro-4-(trifluoromethoxy)phenoxy]-N-[3-(dimethylsulfamoyl)phenyl]-5-(trifluoromethyl)pyridine-3-carboxamide], the IC50 was above 1000 nM.

With `O=C(Nc1ccc(F)c(F)c1)c1cc(C(F)(F)F)cnc1Oc1ccc(OC(F)(F)F)cc1Cl` [Example 155, 2-[2-chloro-4-(trifluoromethoxy)phenoxy]-N-(3,4-difluorophenyl)-5-(trifluoromethyl)pyridine-3-carboxamide], the IC50 was below 500 nM.

For the compound `COc1ccc(NC(=O)c2cc(C(F)(F)F)cnc2Oc2ccc(OC(F)(F)F)cc2Cl)cn1` [Example 156, 2-[2-chloro-4-(trifluoromethoxy)phenoxy]-N-(6-methoxy-3-pyridyl)-5-(trifluoromethyl)pyridine-3-carboxamide], the IC50 was 500 to 1000 nM.

Consider `O=C(Nc1cncnc1)c1cc(C(F)(F)F)cnc1Oc1ccc(OC(F)(F)F)cc1Cl` [Example 157, 2-[2-chloro-4-(trifluoromethoxy)phenoxy]-N-pyrimidin-5-yl-5-(trifluoromethyl)pyridine-3-carboxamide], for which the IC50 is 500 to 1000 nM.
